What all share (assay type): cell-based
The target of assay [1] is T1, GLP-1R (Homo sapiens, UniProt P43220). The experiment in a line: HitHunter cAMP assay (GLP-1R). The conditions noted are these: cAMP; for Emax: read-out: (Emax) GLP-1R. In short, it runs like this:
(§1)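 Agonist stimulation lasts 30 min at room temperature on 10,000 cells per well, with phosphodiesterase blocked by 625 μM IBMX. Accumulated cAMP is quantified by competitive antibody luminescence after overnight development.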

A further assay has as its target T2, GIP-R (Homo sapiens, UniProt P48546).
T2 sequence (P48546 22-466): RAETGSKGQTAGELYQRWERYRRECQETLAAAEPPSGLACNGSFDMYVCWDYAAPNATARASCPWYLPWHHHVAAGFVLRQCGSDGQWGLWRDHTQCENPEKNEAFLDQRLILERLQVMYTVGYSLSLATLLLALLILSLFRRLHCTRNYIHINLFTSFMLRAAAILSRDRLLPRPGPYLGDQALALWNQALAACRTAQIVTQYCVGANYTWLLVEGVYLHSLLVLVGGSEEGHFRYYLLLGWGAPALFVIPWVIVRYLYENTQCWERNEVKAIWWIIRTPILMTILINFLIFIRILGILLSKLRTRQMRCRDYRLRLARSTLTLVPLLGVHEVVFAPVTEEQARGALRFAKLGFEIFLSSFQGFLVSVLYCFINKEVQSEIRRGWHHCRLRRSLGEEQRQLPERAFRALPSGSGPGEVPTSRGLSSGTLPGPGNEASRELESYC
The experiment in a line: HitHunter cAMP assay (GIP-R). The method in brief:
as §1
On the technique in general: Changes in cAMP serve as a functional read-out for many G protein-coupled receptors.

Assay [2] concerns the target T1, GLP-1R. As to the kind of experiment: PathHunter β-arrestin assay. The method in brief:
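Recruitment of β-arrestin is measured by luminescence after cells, plated overnight, receive serially diluted agonist for 90 min at 37 °C in medium with 0.2% BSA. Detection reagent then develops for 3 h at room temperature, protected from light.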

Where [3] appears, read: Table 3, read-out: EC50 GLP-1R/nM.
Setting [4] is: Table 3A, read-out: EC50 GLP-1R/nM.
Where [5] appears, read: Table 3; cAMP; read-out: (Emax) GIP-R.
[6] abbreviates: Table 3; cAMP; read-out: EC50 GIP-R/nM.
Setting [7] is: Table 3A; cAMP; read-out: (Emax) GIP-R.
[8] abbreviates: Table 3A; cAMP; read-out: EC50 GIP-R/nM.
Where [9] appears, read: PathHunter β-arrestin assay, read-out: β-arrestin activity EC50.

Read-outs that look alike come from different tables or passages of the source. Square brackets hold non-standard residues; d marks the D form. Peptide text beside a SMILES is read from it. * marks the point of attachment. X5 = O=C(CSCC(=O)*)NCCN1CCCC1=O; Aib = CC(C)(N)C(=O)O Some results are limits rather than exact numbers.

T1 sequence (P43220 24-463): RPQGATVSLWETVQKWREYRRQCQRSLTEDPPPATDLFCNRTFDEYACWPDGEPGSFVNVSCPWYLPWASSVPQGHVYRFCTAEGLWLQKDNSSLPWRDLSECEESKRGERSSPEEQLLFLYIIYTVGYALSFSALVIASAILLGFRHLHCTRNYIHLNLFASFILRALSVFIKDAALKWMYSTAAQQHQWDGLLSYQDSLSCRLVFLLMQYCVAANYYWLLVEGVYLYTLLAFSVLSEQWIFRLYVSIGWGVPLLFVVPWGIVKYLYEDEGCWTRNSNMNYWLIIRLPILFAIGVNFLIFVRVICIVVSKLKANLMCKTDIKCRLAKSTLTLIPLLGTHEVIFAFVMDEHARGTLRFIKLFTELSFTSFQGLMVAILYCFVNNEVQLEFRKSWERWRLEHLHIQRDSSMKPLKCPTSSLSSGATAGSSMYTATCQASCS

By Emax is commonly meant the maximal effect, on the per cent scale that the assay sets. Consider `CC[C@H](C)[C@H](NC(=O)[C@H](CO)NC(=O)[C@H](Cc1ccc(O)cc1)NC(=O)[C@H](CC(=O)O)NC(=O)[C@H](CO)NC(=O)[C@@H](NC(=O)[C@H](Cc1ccccc1)NC(=O)[C@@H](NC(=O)CNC(=O)[C@H](CCC(=O)O)NC(=O)CSCC(=O)NCCCN1C(=O)c2ccccc2C1=O)[C@@H](C)O)[C@@H](C)O)C(=O)N[C@@H](Cc1ccc(O)cc1)C(=O)N[C@@H](CC(C)C)C(=O)N[C@@H](CC(=O)O)C(=O)N[C@@H](CCCCN)C(=O)N[C@@H](CCC(N)=O)C(=O)N[C@@H](C)C(=O)N[C@@H](C)C(=O)NC(C)(C)C(=O)N[C@@H](CCC(=O)O)C(=O)N[C@@H](Cc1ccccc1)C(=O)N[C@H](C(=O)N[C@@H](CC(N)=O)C(=O)N[C@@H](Cc1c[nH]c2ccccc12)C(=O)N[C@@H](CC(C)C)C(=O)N[C@@H](CC(C)C)C(=O)N[C@@H](C)C(=O)NCC(=O)NCC(=O)N1CCC[C@H]1C(=O)N[C@@H](CO)C(=O)N[C@@H](CO)C(=O)NCC(=O)N[C@@H](C)C(=O)N1CCC[C@H]1C(=O)N1CCC[C@H]1C(=O)N1CCC[C@H]1C(=O)N[C@@H](CO)C(=O)N[C@@H](CCCCN)C(N)=O)C(C)C` [Compound 180], for which the maximal response (Emax) at GLP-1R [1] (Table 3) came out at 94%; on GLP-1R [1] (Table 3A), 94%; at GIP-R (setting [5]), 84%; on GIP-R (setting [7]), 84%. The EC50 on GLP-1R [1] (setting [3]) was 10 to 100 nM; on GLP-1R [1] (setting [4]), 10 to 100 nM; on GIP-R (setting [6]), 10 to 100 nM; on GIP-R (setting [8]), 10 to 100 nM; on GLP-1R [2] (setting [9]), more than 1000 nM.
Consider `CC[C@H](C)[C@H](NC(=O)[C@H](CO)NC(=O)[C@H](Cc1ccc(O)cc1)NC(=O)[C@H](CC(=O)O)NC(=O)[C@H](CO)NC(=O)[C@@H](NC(=O)[C@H](Cc1ccccc1)NC(=O)[C@@H](NC(=O)CNC(=O)[C@H](CCC(=O)O)NC(=O)C(C)(C)C(=O)NCCN1C(=O)CSC1=O)[C@@H](C)O)[C@@H](C)O)C(=O)N[C@@H](Cc1ccc(O)cc1)C(=O)N[C@@H](CC(C)C)C(=O)N[C@@H](CC(=O)O)C(=O)N[C@@H](CCCCN)C(=O)N[C@@H](CCC(N)=O)C(=O)N[C@@H](C)C(=O)N[C@@H](C)C(=O)NC(C)(C)C(=O)N[C@@H](CCC(=O)O)C(=O)N[C@@H](Cc1ccccc1)C(=O)N[C@H](C(=O)N[C@@H](CC(N)=O)C(=O)N[C@@H](Cc1c[nH]c2ccccc12)C(=O)N[C@@H](CC(C)C)C(=O)N[C@@H](CC(C)C)C(=O)N[C@@H](C)C(=O)NCC(=O)NCC(=O)N1CCC[C@H]1C(=O)N[C@@H](CO)C(=O)N[C@@H](CO)C(=O)NCC(=O)N[C@@H](C)C(=O)N1CCC[C@H]1C(=O)N1CCC[C@H]1C(=O)N1CCC[C@H]1C(=O)N[C@@H](CO)C(=O)N[C@@H](CCCCN)C(N)=O)C(C)C` [Compound 153], for which the Emax was 107% on GLP-1R [1] (Table 3), 107% at GLP-1R [1] (Table 3A), 75 to 85% at GIP-R (setting [5]) and 75 to 85% at GIP-R (setting [7]). The EC50 was less than 0.1 nM at GLP-1R [1] (setting [3]); less than 0.1 nM on GLP-1R [1] (setting [4]); 10 to 100 nM at GIP-R (setting [6]); 10 to 100 nM at GIP-R (setting [8]); 10 to 1000 nM on GLP-1R [2] (setting [9]).
For the compound `CC[C@H](C)[C@H](NC(=O)[C@H](CO)NC(=O)[C@H](Cc1ccc(O)cc1)NC(=O)[C@H](CC(=O)O)NC(=O)[C@H](CO)NC(=O)[C@@H](NC(=O)[C@H](Cc1ccccc1)NC(=O)[C@@H](NC(=O)CNC(=O)[C@H](CCC(=O)O)NC(=O)CC(=O)NCCCN1C(=O)c2ccc(C)cc2C1=O)[C@@H](C)O)[C@@H](C)O)C(=O)N[C@@H](Cc1ccc(O)cc1)C(=O)N[C@@H](CC(C)C)C(=O)N[C@@H](CC(=O)O)C(=O)N[C@@H](CCCCN)C(=O)N[C@@H](CCC(N)=O)C(=O)N[C@@H](C)C(=O)N[C@@H](C)C(=O)NC(C)(C)C(=O)N[C@@H](CCC(=O)O)C(=O)N[C@@H](Cc1ccccc1)C(=O)N[C@H](C(=O)N[C@@H](CC(N)=O)C(=O)N[C@@H](Cc1c[nH]c2ccccc12)C(=O)N[C@@H](CC(C)C)C(=O)N[C@@H](CC(C)C)C(=O)N[C@@H](C)C(=O)NCC(=O)NCC(=O)N1CCC[C@H]1C(=O)N[C@@H](CO)C(=O)N[C@@H](CO)C(=O)NCC(=O)N[C@@H](C)C(=O)N1CCC[C@H]1C(=O)N1CCC[C@H]1C(=O)N1CCC[C@H]1C(=O)N[C@@H](CO)C(=O)N[C@@H](CCCCN)C(N)=O)C(C)C` [Compound 128], the EC50 at GLP-1R [1] (EC50 GLP-1R/nM, Table 3) was 1 to 10 nM; on GLP-1R [1] (EC50 GLP-1R/nM, Table 3A), 1 to 10 nM; on GIP-R (read-out: EC50 GIP-R/nM; Table 3; cAMP), 1 to 100 nM; on GIP-R (read-out: EC50 GIP-R/nM; Table 3A; cAMP), 1 to 100 nM; on GLP-1R [2], more than 1000 nM. Moreover, the maximal effect (Emax) at GLP-1R [1] (Table 3) is 99%; at GLP-1R [1] (Table 3A), 99%; at GIP-R (setting [5]), 68%; at GIP-R (setting [7]), 68%.
For the compound `CC[C@H](C)[C@H](NC(=O)[C@H](CO)NC(=O)[C@H](Cc1ccc(O)cc1)NC(=O)[C@H](CC(=O)O)NC(=O)[C@H](CO)NC(=O)[C@@H](NC(=O)[C@H](Cc1ccccc1)NC(=O)[C@@H](NC(=O)CNC(=O)[C@H](CCC(=O)O)NC(=O)CCCCC(=O)NCCN1C(=O)CSC1=O)[C@@H](C)O)[C@@H](C)O)C(=O)N[C@@H](Cc1ccc(O)cc1)C(=O)N[C@@H](CC(C)C)C(=O)N[C@@H](CC(=O)O)C(=O)N[C@@H](CCCCN)C(=O)N[C@@H](CCC(N)=O)C(=O)N[C@@H](C)C(=O)N[C@@H](C)C(=O)NC(C)(C)C(=O)N[C@@H](CCC(=O)O)C(=O)N[C@@H](Cc1ccccc1)C(=O)N[C@H](C(=O)N[C@@H](CC(N)=O)C(=O)N[C@@H](Cc1c[nH]c2ccccc12)C(=O)N[C@@H](CC(C)C)C(=O)N[C@@H](CC(C)C)C(=O)N[C@@H](C)C(=O)NCC(=O)NCC(=O)N1CCC[C@H]1C(=O)N[C@@H](CO)C(=O)N[C@@H](CO)C(=O)NCC(=O)N[C@@H](C)C(=O)N1CCC[C@H]1C(=O)N1CCC[C@H]1C(=O)N1CCC[C@H]1C(=O)N[C@@H](CO)C(=O)N[C@@H](CCCCN)C(N)=O)C(C)C` [Compound 191], the Emax on GLP-1R [1] (Table 3) turned out to be 97%; at GLP-1R [1] (Table 3A), 97%; at GIP-R (setting [5]), 68%; on GIP-R (setting [7]) it was 68%. For the same compound, the EC50 on GLP-1R [1] (setting [3]) was 1 to 10 nM; at GLP-1R [1] (setting [4]), 1 to 10 nM; at GIP-R (setting [6]) it was 10 to 100 nM; at GIP-R (setting [8]), 10 to 100 nM; on GLP-1R [2] (setting [9]), more than 1000 nM.
For `CC[C@H](C)[C@H](NC(=O)[C@H](CO)NC(=O)[C@H](Cc1ccc(O)cc1)NC(=O)[C@H](CC(=O)O)NC(=O)[C@H](CO)NC(=O)[C@@H](NC(=O)[C@H](Cc1ccccc1)NC(=O)[C@@H](NC(=O)CNC(=O)[C@H](CCC(=O)O)NC(=O)CSCC(=O)NCCN1CCCC1=O)[C@@H](C)O)[C@@H](C)O)C(=O)N[C@@H](Cc1ccc(O)cc1)C(=O)N[C@@H](CC(C)C)C(=O)N[C@@H](CC(=O)O)C(=O)N[C@@H](CCCNC(=N)N)C(=O)N[C@@H](CCC(N)=O)C(=O)N[C@@H](C)C(=O)N[C@@H](C)C(=O)NC(C)(C)C(=O)N[C@@H](CCC(=O)O)C(=O)N[C@@H](Cc1ccccc1)C(=O)N[C@H](C(=O)N[C@@H](CC(N)=O)C(=O)N[C@@H](Cc1c[nH]c2ccccc12)C(=O)N[C@@H](CC(C)C)C(=O)N[C@@H](CC(C)C)C(=O)N[C@@H](C)C(=O)NCC(=O)NCC(=O)N1CCC[C@H]1C(=O)N[C@@H](CO)C(=O)N[C@@H](CO)C(=O)NCC(=O)N[C@@H](C)C(=O)N1CCC[C@H]1C(=O)N1CCC[C@H]1C(=O)N1CCC[C@H]1C(=O)N[C@@H](CO)C(N)=O)C(C)C` [Compound 189] (X5-EGTFTSDYSIYLDRQAA[Aib]EFVNWLLAGGPSSGAPPPS-NH2), the Emax at GLP-1R [1] (Table 3) and on GLP-1R [1] (Table 3A) was 94% throughout. Besides, the EC50 at GLP-1R [1] (setting [3]) was 1 to 10 nM; on GLP-1R [1] (setting [4]), 1 to 10 nM; on GIP-R (setting [6]) it was more than 1000 nM; at GIP-R (setting [8]), more than 1000 nM; on GLP-1R [2] (setting [9]), more than 1000 nM. At GIP-R (read-out: (Emax) GIP-R at 1 μM, Table 3; cAMP; at 1 μM), the Emax at 1 µM was 4.5%.
